PubChem BioAssay (NCI)
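1) Cells in 96-well plates. 2) Compound, 48 h, 5 concentrations. 3) Linear interpolation between surrounding doses. 4) Unreached endpoint = highest concentration. TGI is the concentration that stops growth completely.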

Assays:
Assay in all cases: NCI-60 cell line screen, 48 h
[1] = tested on: 786-0 renal
[2] = tested on: A498 renal
[3] = tested on: A549 NSCLC
[4] = tested on: ACHN renal
[5] = tested on: BT-549 breast
[6] = tested on: CAKI-1 renal
[7] = tested on: CCRF-CEM leukemia
[8] = tested on: COLO 205 colon
[9] = tested on: DU-145 prostate
[10] = tested on: EKVX NSCLC
[11] = tested on: HCC-2998 colon
[12] = tested on: HCT-116 colon
[13] = tested on: HCT-15 colon
[14] = tested on: HL-60(TB) leukemia
[15] = tested on: HOP-62 NSCLC
[16] = tested on: HS 578T breast
[17] = tested on: HT29 colon
[18] = tested on: IGROV1 ovarian
[19] = tested on: K-562 leukemia
[20] = tested on: KM12 colon
[21] = tested on: LOX IMVI melanoma
[22] = tested on: M14 melanoma
[23] = tested on: MALME-3M melanoma
[24] = tested on: MCF7 breast
[25] = tested on: MDA-MB-231 breast
[26] = tested on: MDA-MB-435
[27] = tested on: MDA-N
[28] = tested on: NCI-H226 lung
[29] = tested on: NCI-H23 lung
[30] = tested on: NCI-H460 lung
[31] = tested on: NCI-H522 lung
[32] = tested on: NCI/ADR-RES ovarian
[33] = tested on: OVCAR-3 ovarian
[34] = tested on: OVCAR-8 ovarian
[35] = tested on: PC-3 prostate
[36] = tested on: RPMI-8226 leukemia
[37] = tested on: RXF 393 renal
[38] = tested on: SF-268 CNS
[39] = tested on: SF-295 CNS
[40] = tested on: SF-539 CNS
[41] = tested on: SK-MEL-2 melanoma
[42] = tested on: SK-MEL-28 melanoma
[43] = tested on: SK-MEL-5 melanoma
[44] = tested on: SK-OV-3 ovarian
[45] = tested on: SN12C renal
[46] = tested on: SNB-19 CNS
[47] = tested on: SNB-75 CNS
[48] = tested on: SR leukemia
[49] = tested on: SW-620 colon
[50] = tested on: TK-10 renal
[51] = tested on: U251 CNS
[52] = tested on: UACC-257 melanoma
[53] = tested on: UACC-62 melanoma
[54] = tested on: UO-31 renal
[55] = tested on: HOP-92 NSCLC
[56] = tested on: MOLT-4 leukemia
[57] = tested on: OVCAR-5 ovarian
[58] = tested on: T-47D breast

CCOC(=O)C1=CCOc2cc(N(C)C)ccc21
TGI [1]: > 100 µM | TGI [2]: > 100 µM | TGI [3]: > 100 µM | TGI [4]: > 100 µM | TGI [5]: > 100 µM | TGI [6]: > 100 µM | TGI [7]: 64 µM | TGI [8]: > 100 µM | TGI [9]: > 100 µM | TGI [10]: > 100 µM | TGI [11]: > 100 µM | TGI [12]: > 100 µM | TGI [13]: > 100 µM | TGI [14]: > 100 µM | TGI [15]: > 100 µM | TGI [16]: > 100 µM | TGI [17]: > 100 µM | TGI [18]: > 100 µM | TGI [19]: > 100 µM | TGI [20]: > 100 µM | TGI [21]: > 100 µM | TGI [22]: > 100 µM | TGI [23]: > 100 µM | TGI [24]: > 100 µM | TGI [25]: > 100 µM | TGI [26]: > 100 µM | TGI [27]: > 100 µM | TGI [28]: > 100 µM | TGI [29]: > 100 µM | TGI [30]: > 100 µM | TGI [31]: > 100 µM | TGI [32]: > 100 µM | TGI [33]: 55.3 µM | TGI [34]: > 100 µM | TGI [35]: > 100 µM | TGI [36]: > 100 µM | TGI [37]: > 100 µM | TGI [38]: > 100 µM | TGI [39]: > 100 µM | TGI [40]: > 100 µM | TGI [41]: > 100 µM | TGI [42]: > 100 µM | TGI [43]: > 100 µM | TGI [44]: > 100 µM | TGI [45]: > 100 µM | TGI [46]: > 100 µM | TGI [47]: > 100 µM | TGI [48]: > 100 µM | TGI [49]: > 100 µM | TGI [50]: > 100 µM | TGI [51]: > 100 µM | TGI [52]: > 100 µM | TGI [53]: > 100 µM | TGI [54]: > 100 µM

O=C1c2ccccc2-c2nnc3c(c21)-c1ccccc1C3
TGI [1]: > 100 µM | TGI [3]: > 100 µM | TGI [4]: 84.6 µM | TGI [6]: > 100 µM | TGI [7]: > 100 µM | TGI [8]: > 100 µM | TGI [9]: > 100 µM | TGI [10]: > 100 µM | TGI [12]: > 100 µM | TGI [13]: > 100 µM | TGI [14]: > 100 µM | TGI [55]: > 100 µM | TGI [16]: > 100 µM | TGI [17]: > 100 µM | TGI [20]: > 100 µM | TGI [22]: > 100 µM | TGI [23]: > 100 µM | TGI [24]: > 100 µM | TGI [25]: > 100 µM | TGI [26]: > 100 µM | TGI [27]: > 100 µM | TGI [56]: 80.8 µM | TGI [28]: > 100 µM | TGI [29]: > 100 µM | TGI [30]: > 100 µM | TGI [31]: > 100 µM | TGI [32]: > 100 µM | TGI [57]: > 100 µM | TGI [34]: > 100 µM | TGI [35]: > 100 µM | TGI [36]: > 100 µM | TGI [37]: > 100 µM | TGI [38]: > 100 µM | TGI [39]: > 100 µM | TGI [40]: > 100 µM | TGI [41]: > 100 µM | TGI [43]: > 100 µM | TGI [44]: > 100 µM | TGI [45]: > 100 µM | TGI [46]: > 100 µM | TGI [47]: > 100 µM | TGI [48]: > 100 µM | TGI [49]: > 100 µM | TGI [58]: > 100 µM | TGI [51]: > 100 µM | TGI [52]: > 100 µM | TGI [53]: > 100 µM | TGI [54]: > 100 µM
